Measurements: patent publication US10294226B2, “Small molecule inhibitors of the JAK family of kinases” (Janssen Pharmaceutica NV, priority 2016, dated 2019)

Assays:
physchem = conditions: thermodynamic from solid
P-gp (MDR1) = test: MDCK-MDR1 permeability assay; assay type: in vitro ADME; conditions: dog
MDCK-MDR1 cell line = test: MDCK-MDR1 permeability assay; assay type: in vitro ADME; conditions: @ 5 μM, apical to basolateral, with P-gp inhibitor elacridar (2 μM)
[1] = In vivo oral (p.o.) dosing, plasma and colon concentrations (Protocols 1 and 2); set-up: species or system female C57BL/6 mice; conditions: mice, 25 mg/kg p.o.
Experimental: These protocols are described below under the heading In vivo Studies. Three non-fasted female C57BL/6 mice were orally administered test compound at a dose of 25 mg/kg p.o. as a solution in 20% hydroxypropyl-beta-cyclodextrin (HPβCD) at a dose volume of 5 mL/kg. Blood samples were collected at 0.5, 2, and 4 h post dose via retro-orbital bleed or venipuncture of the dorsal metatarsal vein. Blood samples were collected into tubes containing anticoagulant (Heparin-Na) and placed on wet ice. […] Colon samples were collected at 4 h post dose. […] The colon was further washed by putting it in 5 mL of saline and shaken for 5 seconds. The colon sample was then patted dry, weighed, and homogenized as 1 part tissue (g) to 4 parts HPLC grade water (mL). Concentrations of the compound in plasma and colon homogenate were determined using a qualified liquid chromatography-triple quadrupole mass spectrometry (LC-MS/MS) method. […] Three non-fasted female C57BL/6 mice were orally administered test compound at a dose of 25 mg/kg p.o. as a solution in 20% HPβCD at a dose volume of 5 mL/kg. Blood samples were collected at 0.5, 2, and 4 h post dose via retro-orbital bleed or dorsal metatarsal vein. Blood samples were collected into tubes containing anticoagulant (Heparin-Na) and placed on wet ice. […] Colon samples were collected at 4 h post dose. […] The colon was further washed by putting it in 5 mL of saline and shaken for 5 seconds. The colon sample was then patted dry, weighed, and homogenized as 1 part tissue (g) to 4 parts HPLC grade water (mL). Concentrations of the compound in plasma and colon homogenate were determined using a qualified liquid chromatography-triple quadrupole mass spectrometry (LC-MS/MS) method.

JAK3-JH1JH2 = JAK3-JH1JH2 (Homo sapiens (Human), UniProt P52333); test: Enzymatic inhibition assay (HTMS); assay type: biochemical; conditions: 150 μM ATP; read-out: JAK3_I_JH1JH2 IC50
JAK3-JH1JH2, sequence (P52333 512-1124): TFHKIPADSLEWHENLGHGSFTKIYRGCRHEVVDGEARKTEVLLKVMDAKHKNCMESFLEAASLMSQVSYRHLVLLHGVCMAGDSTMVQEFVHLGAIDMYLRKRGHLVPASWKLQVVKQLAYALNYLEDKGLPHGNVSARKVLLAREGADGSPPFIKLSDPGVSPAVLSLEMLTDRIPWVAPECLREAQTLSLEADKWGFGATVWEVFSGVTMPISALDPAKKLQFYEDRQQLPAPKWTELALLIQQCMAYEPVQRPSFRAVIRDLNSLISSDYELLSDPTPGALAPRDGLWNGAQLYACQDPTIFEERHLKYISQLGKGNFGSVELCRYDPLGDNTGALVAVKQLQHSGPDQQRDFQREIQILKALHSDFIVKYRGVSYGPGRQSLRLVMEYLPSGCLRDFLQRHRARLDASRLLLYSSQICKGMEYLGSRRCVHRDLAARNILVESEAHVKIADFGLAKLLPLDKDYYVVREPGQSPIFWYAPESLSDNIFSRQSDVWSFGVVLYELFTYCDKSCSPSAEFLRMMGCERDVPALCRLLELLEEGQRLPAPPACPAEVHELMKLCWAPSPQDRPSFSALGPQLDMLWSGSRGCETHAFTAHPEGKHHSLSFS
From the text: (§1) JAK1-JH1JH2 (574-1154 with a His-GST Tag and a C-terminal tev (ENLYFQ-G) cleavage site), JAK3-JH1JH2 (512-1124 with a GST Tag and a C-terminal tev (ENLYFQ-G) cleavage site), and Tyk2-JH1JH2 (8H_tev_580-1182-C936A-C1142A with a C-terminal tev (ENLYFQ-G) cleavage site) were purified internally. […] LC/MS grade water and acetonitrile (ACN), were purchased from HoneyWell, Burdick & Jackson (Muskegon, Mich., USA). Dimethylsulfoxide 99.8% (DMSO) and trifluoroacetic acid 99.5% (TFA) were purchased from EMD Chemical (Gibbstown, N.J., USA). Adenosine triphosphate (ATP), 4-morpholinepropanesulfonic acid (MOPS), magnesium chloride (MgCl2), ethylenediaminetetraacetic acid (EDTA), dithiothreitol (DTT), formic acid>95% (FA) and Tween-20 were purchased from Sigma (St Louis, Mo., USA). 384-well polypropylene plates, Cat#781280 were purchased from Greiner (Monroe, N.C.), RapidFire™ cartridge A C4 Column (Agilent Technologies, Santa Clara, Calif.).
(§2) The HTMS experiments were performed in positive ionization mode on a RapidFire 300 instrument (Agilent Technologies, Santa Clara, Calif.), coupled with an ABSiex QTrap 4000 system with an Electrospray Ionization source (RF-MS) (Concord, ON, Canada). […] The entire system was operated using the RapidFire software interfaced with Analyst software for the mass spectrometer.
(§3) 11-point dosing series were made for each compound by serially diluting 1:3 or 1:4 in DMSO, with point 12 being a DMSO control. From the serial dilution plates, sample was transferred to a 384 wells assay plate (#781280, Greiner, Monroe, N.C.) using Labcyte Echo (Sunnyvale, Calif.), or Biosero ATS (San Diego, Calif.). The compounds were tested in duplicate. Column 12 was used for positive controls, and column 24 contained negative controls with no enzyme added. A compound from our internal collection, with inhibitory activity for JAK isoforms, was used as a reference compound. The final concentration of DMSO was ≤0.25% in a 20 μL reaction. The enzyme reaction was initiated by the addition of 10 μL of enzyme and ATP mixture to 10 μL of substrate solution prepared in reaction buffer (50 mM MOPS pH 7.5, 10 mM MgCl2, 1 mM EDTA, 2 mM DTT, 0.002% Tween-20). The Tyk2 enzyme was pre-incubated with 2 mM ATP for 30 min prior to the reaction initiation. Immediately after the addition of the enzyme to the reaction mixture, the plate was centrifuged at 1000 rpm for 1 minute and incubated at 25° C. for 45 minutes for JAK3 and 90 minutes for JAK1, JAK2 and Tyk2. The reaction was quenched by the addition of 20 μL of 0.5% TFA containing 0.15 μM of internal standard peptide using Multidrop Combi reagent dispenser (Thermo Scientific, Waltham, Mass.). […] After the quench, the assay plate was centrifuged at 3000 rpm for 3 minutes and sealed with pierceable aluminum foil (Cat#06644-001, Agilent) using a PlateLoc (Agilent Technologies, Santa Clara, Calif.). The plates then were transferred on to the RapidFire for the MS analysis. Compound inhibition was assessed by a decrease of the phosphorylated product levels in sample wells compared to the non-inhibited enzyme reaction.
(§4) The sample analysis on the RapidFire was performed using a mobile phase A1 consisting of Water/TFA/FA (100:0.01:0.1, v/v/v), a mobile phase B1 consisting of ACN/Water/TFA/FA (80:20:0.01:0.1, v/v/v). […] The samples were aspirated directly from the 384-well assay plate and delivered onto RF-MS microscale solid-phase C4 extraction cartridge (Type A). The undesired component such as salt, cofactor, detergent and large protein were washed out and the retained analytes (substrate, product and IS) were coeluted directly onto the AB Siex Qtrap 4000 system.

Tyk2-JH1JH2 = Tyk2-JH1JH2 (Homo sapiens (Human), UniProt P29597, C1142A/C936A); test: Enzymatic inhibition assay (HTMS); assay type: biochemical; conditions: read-out: Tyk2_I_JH1JH2 IC50
Tyk2-JH1JH2, sequence (P29597 580-1182 C936A/C1142A): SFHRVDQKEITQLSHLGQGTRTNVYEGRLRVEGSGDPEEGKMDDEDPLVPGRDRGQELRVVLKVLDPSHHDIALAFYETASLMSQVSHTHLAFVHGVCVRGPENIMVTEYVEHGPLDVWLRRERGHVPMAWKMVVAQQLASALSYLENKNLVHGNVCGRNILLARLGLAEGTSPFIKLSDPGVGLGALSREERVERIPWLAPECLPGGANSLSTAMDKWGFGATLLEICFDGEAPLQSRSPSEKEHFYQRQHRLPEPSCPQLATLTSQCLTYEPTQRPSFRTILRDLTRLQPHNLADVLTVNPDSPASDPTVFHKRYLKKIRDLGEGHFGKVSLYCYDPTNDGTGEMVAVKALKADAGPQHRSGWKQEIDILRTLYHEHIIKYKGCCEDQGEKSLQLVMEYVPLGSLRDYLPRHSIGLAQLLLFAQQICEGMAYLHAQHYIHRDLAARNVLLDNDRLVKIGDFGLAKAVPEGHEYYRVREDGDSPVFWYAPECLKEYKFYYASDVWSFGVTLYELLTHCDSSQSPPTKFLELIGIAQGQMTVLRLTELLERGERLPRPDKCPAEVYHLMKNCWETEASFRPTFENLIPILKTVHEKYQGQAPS
From the text: as §1, §2, §3, §4

JAK1-JH1JH2 = JAK1-JH1JH2 (Homo sapiens (Human), UniProt P23458); test: Enzymatic inhibition assay (HTMS); assay type: biochemical
JAK1-JH1JH2, sequence (P23458 574-1154): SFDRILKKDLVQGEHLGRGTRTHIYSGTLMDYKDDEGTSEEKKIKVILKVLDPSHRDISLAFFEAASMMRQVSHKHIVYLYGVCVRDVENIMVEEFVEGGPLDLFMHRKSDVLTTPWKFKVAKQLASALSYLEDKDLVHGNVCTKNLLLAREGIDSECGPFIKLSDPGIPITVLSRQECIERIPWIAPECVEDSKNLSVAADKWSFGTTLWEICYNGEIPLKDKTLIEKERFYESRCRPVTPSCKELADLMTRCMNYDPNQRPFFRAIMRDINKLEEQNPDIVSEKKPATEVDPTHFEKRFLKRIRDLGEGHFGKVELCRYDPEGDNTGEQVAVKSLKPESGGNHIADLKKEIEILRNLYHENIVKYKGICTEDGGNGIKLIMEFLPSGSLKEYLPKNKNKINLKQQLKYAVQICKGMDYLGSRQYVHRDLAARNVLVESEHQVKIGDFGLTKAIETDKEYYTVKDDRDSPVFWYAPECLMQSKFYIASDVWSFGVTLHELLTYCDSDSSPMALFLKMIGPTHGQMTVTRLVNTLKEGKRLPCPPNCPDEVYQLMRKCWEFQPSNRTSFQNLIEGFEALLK
From the text: as §1, §2, §3, §4

JAK2-JH1JH2 = JAK2-JH1JH2 (Homo sapiens (Human), UniProt O60674); test: Enzymatic inhibition assay (HTMS); assay type: biochemical; conditions: read-out: JAK2_I_JH1JH2 IC50
From the text: as §1, §2, §3, §4

[2] = Polymorph screening, physical stability of crystalline embodiments of compound Ex. 1; assay type: physicochemical; conditions: for physical stability of solid form: ambient conditions; for physical stability of solid form after AAC: 2 days at 40° C./70% RH, HT-XRPD; for physical stability of solid form in climate chamber: four days, HR-XRPD
Experimental: Long term slurry experiments were performed by suspending compound embodiment 1s in twenty neat solvents and stirred at room temperature for two weeks and at 50° C. for one week. Upon completion of the equilibration time, the residual solids were separated from the mother liquors. The solids were dried under ambient conditions and dried under vacuum (5 mBar) before being analyzed by HT-XRPD. Subsequently, the solids were exposed to accelerated aging conditions (40° C./70% relative humidity) for two days and again analyzed by HT-XRPD.
Embodiment 1s converted to hydrated embodiment 10 when it was exposed to 100% RH at 25° C. […] This behavior is attributable to an unequally strong binding of all the hydration/solvation molecules. In this case, embodiment 10 would have a less strongly bound second water molecule that would be lost under ambient conditions. More precisely, the physical stability of embodiment 1s was investigated in climate chambers by exposing a 20 mg sample of such embodiment to 40° C. and 70% relative humidity for four days, and another 20 mg sample of the same embodiment was exposed also for four days to 25° C. and 100% relative humidity. After four days, the various solid samples were analyzed by HR-XRPD, the crystal cell parameters were determined and the diffractograms were indexed. From bottom to top, the first diffractogram in FIG. 6 corresponds to embodiment 1s as starting material, and the second corresponds to the same form after a 4-day exposure to 40° C. and 70% relative humidity, noted as “1s 70 RH” in the same figure. […] Indexing for such form was not possible due to the small amount in which it was present. The third diffractogram corresponds to embodiment 1s after a 4-day exposure to 25° C. and 100% relative humidity, noted as “10” in the same figure. […] Upon dehydration, both embodiments 1s and 10 re-crystallized to the anhydrous form with a melting point of 148° C.
The mother liquors of the solvent equilibration experiments performed at 50° C. were filtered at 50° C. to remove any particulate matter. The suspensions at 50° C. were filtered using 0.2 μm PTFE filters, and the solutions were placed at 5° C. and aged for 72 hours. When solids had precipitated during aging these solids were separated from the liquid, dried under ambient conditions and under vacuum, and analyzed by HT-XRPD. The remaining mother liquors were allowed to slowly evaporate and the remaining solids were analyzed by HT-XRPD. The samples in which no precipitation occurred were placed under vacuum and the dried solids were analyzed by HT-XRPD. All the solids were then exposed to AAC (2 days at 40° C./70% RH) and re-analyzed by HT-XRPD.
The cooling/evaporative crystallization experiments at μL scale were performed in a 96-well plate, using 12 neat solvents and 12 solvent mixtures and applying four temperature profiles. In each well approximately 4 mg of embodiment 1s was solid dosed. Subsequently, the crystallization solvents (80 μL) and solvent mixtures were added to reach a concentration of 50 mg/mL, and the plate, with each well individually sealed, to subsequently undergo one of the four temperature profiles. Upon completion of the temperature profile the solvents were allowed to evaporate at low ambient pressure (24 hours) and the remaining solids were analyzed by HT-XRPD before and after exposure to AAC for 2 days (40° C./70% RH).
The cooling crystallization experiments with hot filtration were performed from supersaturated solutions of compound Ex. 1 prepared at 50° C. in different solvent mixtures. The hot filtrated solutions underwent a 48-hour cooling profile. The vials in which solids had precipitated after the temperature profile were centrifuged and the solids were separated from the liquid and analyzed by HT-XRPD (after drying under vacuum). If no solids had precipitated the solutions were evaporated under vacuum and the solids analyzed by HT-XRPD. […]

`C[C@@H](O)c1nc2cnc3[nH]ccc3c2n1[C@H]1CC[C@H](CC#N)CC1` [C, reference compound] showed a solubility (physchem; pH 6.5, fassif) greater than 400 µM, a solubility (physchem; simulated gastric fluid) greater than 400 µM and a Papp A→B at 60 min, 5 μM (P-gp (MDR1); MDCK-MDR1, pH 7.4, @ 5 μM, apical to basolateral, without elacridar, read-out: MDCK-MDR1 Papp(A-B)) of 0.5 ×10⁻⁶ cm/s. For the same molecule, the Papp B→A at 60 min, 5 μM (P-gp (MDR1); MDCK-MDR1, pH 7.4, @ 5 μM, basolateral to apical) was 23.1 ×10⁻⁶ cm/s, the “MDCK-MDR1 P^eapp(A-B)” value (MDCK-MDR1 cell line) was 2.5 10^−6 cm/sec and the “Plasma Concentration After p.o. Dosing, Mean” value ([1]; Time = 0.5 h) was […]. The “Plasma Concentration After p.o. Dosing, Mean” value ([1]; Time = 2 h) was […], the “Colon Concentration After p.o. Dosing, Mean” value ([1]; Time = 4 h) was […] and the “Plasma Concentration After p.o. Dosing, Mean” value ([1]; Time = 4 h) was […]. It also gave an IC50 (JAK3-JH1JH2) of 49700 pM, an IC50 (Tyk2-JH1JH2) of 200 pM and an IC50 (JAK1-JH1JH2) of less than 200 pM. The IC50 (JAK2-JH1JH2) was […].

In the case of `CC(C)(O)CNC(=O)Cc1nc2cnc3[nH]ccc3c2n1[C@H]1CC[C@H](CC#N)CC1` [Embodiment 4], the “physical stability of solid form” value [2] is reported as “did not appear to be physically stable”.

For `CC(C)(O)CNC(=O)Cc1nc2cnc3[nH]ccc3c2n1[C@H]1CC[C@H](CC#N)CC1` [Embodiment 5], the “physical stability of solid form after AAC” value [2] was “physically unstable”.

In the case of `CC(C)(O)CNC(=O)Cc1nc2cnc3[nH]ccc3c2n1[C@H]1CC[C@H](CC#N)CC1` [Embodiment 6], the “physical stability of solid form after AAC” value [2] is reported as “stable solid form”.

With `CC(C)(O)CNC(=O)Cc1nc2cnc3[nH]ccc3c2n1[C@H]1CC[C@H](CC#N)CC1` [Embodiment 7] the “physical stability of solid form after AAC” value [2] was “physically stable”.

In the case of `CC(C)(O)CNC(=O)Cc1nc2cnc3[nH]ccc3c2n1[C@H]1CC[C@H](CC#N)CC1` [embodiment 1s], the “physical stability of solid form in climate chamber” value ([2]; 25° C. and 100% relative humidity) is reported as “conversion of embodiment 1s into embodiment 10” and the “physical stability of solid form in climate chamber” value ([2]; 40° C. and 70% relative humidity) is reported as “initial embodiment 1s had been recovered”.

For `CC(C)(O)CNC(=O)Cc1nc2cnc3[nH]ccc3c2n1[C@H]1CC[C@H](CC#N)CC1` [embodiment 2], the “physical stability of solid form after AAC” value [2] was “converted to embodiment 3e”.

For `CC(C)(O)CNC(=O)Cc1nc2cnc3[nH]ccc3c2n1[C@H]1CC[C@H](CC#N)CC1` [embodiment 10], the “physical stability of solid form” value [2] was “physically not stable”.
